Measured values from ChEMBL document CHEMBL1138676, “Liver-selective glucocorticoid antagonists: a novel treatment for type 2 diabetes” (J Med Chem, 2004).

How the values were obtained:
Estrogen receptor beta = Estrogen receptor beta (Homo sapiens, UniProt Q92731); test: Inhibition of human Estrogen receptor beta
Estrogen receptor = molecular target: T1, Estrogen receptor (Homo sapiens, UniProt P03372); test: Inhibition of human Estrogen receptor alpha
T1 sequence (P03372 whole entry): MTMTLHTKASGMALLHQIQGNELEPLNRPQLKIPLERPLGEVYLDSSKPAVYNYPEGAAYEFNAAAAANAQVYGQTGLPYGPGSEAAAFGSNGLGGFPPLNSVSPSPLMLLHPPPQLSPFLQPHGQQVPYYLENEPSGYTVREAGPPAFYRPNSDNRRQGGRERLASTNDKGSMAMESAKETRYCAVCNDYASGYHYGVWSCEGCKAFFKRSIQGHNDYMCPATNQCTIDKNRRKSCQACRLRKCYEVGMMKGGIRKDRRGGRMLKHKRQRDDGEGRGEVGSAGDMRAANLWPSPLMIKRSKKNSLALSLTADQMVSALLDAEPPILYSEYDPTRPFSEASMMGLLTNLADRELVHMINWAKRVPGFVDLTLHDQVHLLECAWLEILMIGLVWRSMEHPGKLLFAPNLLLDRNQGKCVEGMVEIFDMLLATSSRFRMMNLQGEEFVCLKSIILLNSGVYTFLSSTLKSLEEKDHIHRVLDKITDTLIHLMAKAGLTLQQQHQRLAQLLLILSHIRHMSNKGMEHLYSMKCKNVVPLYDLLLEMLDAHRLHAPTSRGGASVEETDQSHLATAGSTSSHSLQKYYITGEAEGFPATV

[1] = molecular target: T2, Thyroid hormone receptor beta (Homo sapiens, UniProt P10828); test: Inhibition of human Thyroid hormone receptor beta
T2 sequence (P10828 whole entry): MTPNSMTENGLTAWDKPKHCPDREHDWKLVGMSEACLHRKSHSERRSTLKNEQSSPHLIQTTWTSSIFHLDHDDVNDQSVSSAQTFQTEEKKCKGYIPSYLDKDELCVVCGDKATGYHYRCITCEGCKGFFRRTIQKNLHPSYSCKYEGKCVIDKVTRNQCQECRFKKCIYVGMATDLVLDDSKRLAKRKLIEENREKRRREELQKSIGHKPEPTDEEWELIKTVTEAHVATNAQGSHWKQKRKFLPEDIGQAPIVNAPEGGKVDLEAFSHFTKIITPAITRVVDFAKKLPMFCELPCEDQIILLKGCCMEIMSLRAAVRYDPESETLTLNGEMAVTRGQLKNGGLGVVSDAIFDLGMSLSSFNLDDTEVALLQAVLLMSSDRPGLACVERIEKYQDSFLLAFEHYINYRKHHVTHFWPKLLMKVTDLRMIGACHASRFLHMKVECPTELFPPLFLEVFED

Androgen receptor = molecular target: T3, Androgen receptor (Homo sapiens, UniProt P10275)
T3 sequence (P10275 whole entry): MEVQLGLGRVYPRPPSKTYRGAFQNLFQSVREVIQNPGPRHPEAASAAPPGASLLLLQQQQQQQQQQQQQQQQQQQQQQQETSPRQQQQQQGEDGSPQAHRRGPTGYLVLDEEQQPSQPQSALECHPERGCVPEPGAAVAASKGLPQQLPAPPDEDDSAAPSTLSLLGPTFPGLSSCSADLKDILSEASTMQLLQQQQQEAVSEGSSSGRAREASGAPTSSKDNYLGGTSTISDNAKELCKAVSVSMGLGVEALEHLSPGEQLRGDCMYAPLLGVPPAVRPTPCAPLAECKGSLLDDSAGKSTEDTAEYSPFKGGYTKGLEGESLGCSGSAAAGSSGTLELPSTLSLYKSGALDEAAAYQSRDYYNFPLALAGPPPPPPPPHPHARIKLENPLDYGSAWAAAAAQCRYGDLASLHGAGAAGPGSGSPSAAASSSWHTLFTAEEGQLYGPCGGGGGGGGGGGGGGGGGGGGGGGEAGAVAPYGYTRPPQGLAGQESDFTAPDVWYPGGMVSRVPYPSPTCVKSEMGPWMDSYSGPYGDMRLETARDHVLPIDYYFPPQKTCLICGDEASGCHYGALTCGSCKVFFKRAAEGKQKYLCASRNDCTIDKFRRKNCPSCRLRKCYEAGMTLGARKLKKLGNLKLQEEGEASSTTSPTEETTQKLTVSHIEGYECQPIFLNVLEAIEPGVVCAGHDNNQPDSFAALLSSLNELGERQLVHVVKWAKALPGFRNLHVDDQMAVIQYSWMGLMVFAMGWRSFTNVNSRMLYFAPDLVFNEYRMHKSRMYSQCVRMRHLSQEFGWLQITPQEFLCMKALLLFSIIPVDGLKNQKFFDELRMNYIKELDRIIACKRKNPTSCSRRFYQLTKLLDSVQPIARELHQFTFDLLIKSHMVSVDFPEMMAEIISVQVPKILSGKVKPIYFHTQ
Description: Inhibition of human androgen receptor

[2] = molecular target: T4, Mineralocorticoid receptor (Homo sapiens, UniProt P08235)
T4 sequence (P08235 whole entry): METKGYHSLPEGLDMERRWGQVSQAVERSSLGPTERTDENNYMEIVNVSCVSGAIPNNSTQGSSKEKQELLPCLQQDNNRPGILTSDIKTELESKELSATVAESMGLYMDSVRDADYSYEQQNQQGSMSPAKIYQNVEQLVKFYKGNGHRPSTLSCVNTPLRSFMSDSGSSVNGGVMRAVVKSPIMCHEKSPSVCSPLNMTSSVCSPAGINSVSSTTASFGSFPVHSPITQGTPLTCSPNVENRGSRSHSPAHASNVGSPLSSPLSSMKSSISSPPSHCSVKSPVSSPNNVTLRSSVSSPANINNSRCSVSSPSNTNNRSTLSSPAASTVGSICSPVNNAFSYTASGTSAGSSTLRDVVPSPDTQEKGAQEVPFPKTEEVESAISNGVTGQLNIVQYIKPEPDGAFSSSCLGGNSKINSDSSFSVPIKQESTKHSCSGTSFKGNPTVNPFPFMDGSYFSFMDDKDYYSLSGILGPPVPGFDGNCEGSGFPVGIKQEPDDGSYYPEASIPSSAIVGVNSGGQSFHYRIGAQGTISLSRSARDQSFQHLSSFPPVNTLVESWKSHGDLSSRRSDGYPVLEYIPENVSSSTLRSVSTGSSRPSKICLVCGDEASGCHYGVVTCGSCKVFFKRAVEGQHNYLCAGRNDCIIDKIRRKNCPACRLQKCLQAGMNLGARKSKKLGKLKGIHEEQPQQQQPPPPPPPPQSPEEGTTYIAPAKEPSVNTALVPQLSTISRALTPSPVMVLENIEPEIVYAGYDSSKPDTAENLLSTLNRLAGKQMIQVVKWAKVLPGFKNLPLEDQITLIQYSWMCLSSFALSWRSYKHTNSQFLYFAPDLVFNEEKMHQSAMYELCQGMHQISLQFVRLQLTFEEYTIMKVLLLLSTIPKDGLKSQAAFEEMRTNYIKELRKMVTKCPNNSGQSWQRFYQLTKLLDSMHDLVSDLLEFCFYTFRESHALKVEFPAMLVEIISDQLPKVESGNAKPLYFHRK
Description: Inhibition of human Mineralocorticoid receptor

[3] = molecular target: Glucocorticoid receptor (Rattus norvegicus) (UniProt P06536); test: Inhibition of glucocorticoid receptor mediated tyrosine amino transferase activity
Chain of Glucocorticoid receptor (Rattus norvegicus) (P06536 whole entry, looked up): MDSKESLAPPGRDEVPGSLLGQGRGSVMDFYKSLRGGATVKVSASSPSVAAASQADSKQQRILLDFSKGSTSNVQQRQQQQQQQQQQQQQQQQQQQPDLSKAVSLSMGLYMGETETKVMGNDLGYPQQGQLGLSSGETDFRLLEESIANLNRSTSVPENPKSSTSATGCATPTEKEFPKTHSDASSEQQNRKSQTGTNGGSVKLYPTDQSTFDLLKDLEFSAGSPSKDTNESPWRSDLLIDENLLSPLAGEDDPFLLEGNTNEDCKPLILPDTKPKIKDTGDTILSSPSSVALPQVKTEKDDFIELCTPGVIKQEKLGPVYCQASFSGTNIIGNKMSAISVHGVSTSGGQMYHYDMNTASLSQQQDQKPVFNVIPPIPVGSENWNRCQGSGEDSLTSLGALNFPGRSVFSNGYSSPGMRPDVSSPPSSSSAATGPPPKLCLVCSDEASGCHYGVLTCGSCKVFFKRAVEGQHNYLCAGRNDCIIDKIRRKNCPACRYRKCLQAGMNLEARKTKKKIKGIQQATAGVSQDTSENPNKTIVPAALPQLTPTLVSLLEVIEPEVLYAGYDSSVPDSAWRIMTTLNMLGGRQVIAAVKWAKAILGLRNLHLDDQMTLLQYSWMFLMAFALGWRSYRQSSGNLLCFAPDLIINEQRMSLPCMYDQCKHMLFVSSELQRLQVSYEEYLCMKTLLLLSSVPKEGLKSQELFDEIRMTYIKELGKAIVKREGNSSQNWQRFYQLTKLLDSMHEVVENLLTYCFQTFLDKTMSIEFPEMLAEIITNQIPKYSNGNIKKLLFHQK

Chain of Estrogen receptor beta (Q92731 whole entry): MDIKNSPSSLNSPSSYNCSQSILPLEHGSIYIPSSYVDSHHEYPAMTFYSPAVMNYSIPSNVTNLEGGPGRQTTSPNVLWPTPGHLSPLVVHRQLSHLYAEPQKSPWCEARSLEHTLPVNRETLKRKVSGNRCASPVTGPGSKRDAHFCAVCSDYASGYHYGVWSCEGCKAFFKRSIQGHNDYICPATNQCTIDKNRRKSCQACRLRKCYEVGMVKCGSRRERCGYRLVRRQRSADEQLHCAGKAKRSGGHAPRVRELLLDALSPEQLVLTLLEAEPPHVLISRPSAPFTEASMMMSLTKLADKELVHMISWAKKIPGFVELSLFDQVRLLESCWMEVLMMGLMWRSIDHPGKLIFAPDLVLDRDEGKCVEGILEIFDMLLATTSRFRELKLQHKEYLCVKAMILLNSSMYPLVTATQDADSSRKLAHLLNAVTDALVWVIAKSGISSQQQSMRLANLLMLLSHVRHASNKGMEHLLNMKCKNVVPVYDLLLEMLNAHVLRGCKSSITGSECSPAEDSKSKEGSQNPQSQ

Structure (SMILES)	Ki (Estrogen receptor beta)	Ki (Estrogen receptor)	Ki [1]	Ki (Androgen receptor)	Ki [2]	Ki [3]
C#C[C@]1(O)CC[C@H]2[C@@H]3CCC4=CC(=O)CCC4=C3[C@@H](c3ccc(N(C)CCNC(=O)OC4CC[C@@]5(C)[C@@H](C4)C[C@@H](O)[C@@H]4[C@@H]5C[C@H](O)[C@]5(C)[C@@H]([C@H](C)CCC(=O)O)CC[C@@H]45)cc3)C[C@@]21C (some centres not stated)	> 750 nM	> 200 nM	> 2250 nM	6.2 nM	> 1000 nM	330 nM
C#C[C@]1(O)CC[C@H]2[C@@H]3CCC4=CC(=O)CCC4=C3[C@@H](c3ccc(N(C)CCNC(=O)N(C)C4CC[C@@]5(C)[C@@H](C4)C[C@@H](O)[C@@H]4[C@@H]5C[C@H](O)[C@]5(C)[C@@H]([C@H](C)CCC(=O)O)CC[C@@H]45)cc3)C[C@@]21C (some centres not stated)	190 nM	140 nM	> 2250 nM	16 nM	850 nM	34 nM
C#C[C@]1(O)CC[C@H]2[C@@H]3CCC4=CC(=O)CCC4=C3[C@@H](c3ccc(N(C)CCC[C@H]4[C@H](O)CC[C@@]5(C)[C@@H]4C[C@@H](O)[C@@H]4[C@@H]5C[C@H](O)[C@]5(C)[C@@H]([C@H](C)CCC(=O)O)CC[C@@H]45)cc3)C[C@@]21C	48 nM	46 nM	–	53 nM	> 1000 nM	340 nM
C#C[C@]1(O)CC[C@H]2[C@@H]3CCC4=CC(=O)CCC4=C3[C@@H](c3ccc(N(C)C(=O)CNC(=O)OC4CC[C@@]5(C)[C@@H](C4)C[C@@H](O)[C@@H]4[C@@H]5C[C@H](O)[C@]5(C)[C@@H]([C@H](C)CCC(=O)O)CC[C@@H]45)cc3)C[C@@]21C (some centres not stated)	160 nM	11 nM	> 2250 nM	21 nM	310 nM	340 nM
C#C[C@]1(O)CC[C@H]2[C@@H]3CCC4=CC(=O)CCC4=C3[C@@H](c3ccc(N(C)CCOCCO[C@H]4CC[C@@]5(C)[C@@H](C4)C[C@@H](O)[C@@H]4[C@@H]5C[C@H](O)[C@]5(C)[C@@H]([C@H](C)CCC(=O)O)CC[C@@H]45)cc3)C[C@@]21C	51 nM	14 nM	> 2250 nM	3.3 nM	150 nM	56 nM
C#C[C@]1(O)CC[C@H]2[C@@H]3CCC4=CC(=O)CCC4=C3[C@@H](c3ccc(N(C)C(C)=O)cc3)C[C@@]21C	570 nM	34 nM	> 2250 nM	8.9 nM	> 1000 nM	–
C#C[C@]1(O)CC[C@H]2[C@@H]3CCC4=CC(=O)CCC4=C3[C@@H](c3ccc(N(C)CCCOC4CC[C@@]5(C)[C@@H](C4)C[C@@H](O)[C@@H]4[C@@H]5C[C@H](O)[C@]5(C)[C@@H]([C@H](C)CCC(=O)O)CC[C@@H]45)cc3)C[C@@]21C (some centres not stated)	13 nM	8.8 nM	1900 nM	4.6 nM	80 nM	100 nM
C#C[C@]1(O)CC[C@H]2[C@@H]3CCC4=CC(=O)CCC4=C3[C@@H](c3ccc(N(C)CCOC4CC[C@@]5(C)[C@@H](C4)C[C@@H](O)[C@@H]4[C@@H]5C[C@H](O)[C@]5(C)[C@@H]([C@H](C)CCC(=O)NCCS(=O)(=O)O)CC[C@@H]45)cc3)C[C@@]21C (some centres not stated)	30 nM	10 nM	> 2250 nM	8.9 nM	140 nM	160 nM
C#C[C@]1(O)CC[C@H]2[C@@H]3CCC4=CC(=O)CCC4=C3[C@@H](c3ccc(N(C)C(=O)CC[C@H](NC(=O)CC[C@@H](C)[C@H]4CC[C@H]5[C@@H]6[C@H](O)C[C@@H]7C[C@H](O)CC[C@]7(C)[C@H]6C[C@H](O)[C@]45C)C(=O)O)cc3)C[C@@]21C	240 nM	72 nM	> 2250 nM	34 nM	590 nM	350 nM
C#C[C@]1(O)CC[C@H]2[C@@H]3CCC4=CC(=O)CCC4=C3[C@@H](c3ccc(N(C)CCOC4CC[C@@]5(C)[C@@H](C4)C[C@@H](O)[C@@H]4[C@@H]5C[C@H](O)[C@]5(C)[C@@H]([C@H](C)CCC(=O)O)CC[C@@H]45)cc3)C[C@@]21C (stereo in doubt; form 2)	110 nM	12 nM	1500 nM	8.1 nM	440 nM	56 nM
C#C[C@]1(O)CC[C@H]2[C@@H]3CCC4=CC(=O)CCC4=C3[C@@H](c3ccc(N(C)CCOC4CC[C@@]5(C)[C@@H](C4)C[C@@H](O)[C@@H]4[C@@H]5C[C@H](O)[C@]5(C)[C@@H]([C@H](C)CCC(=O)NCC(=O)O)CC[C@@H]45)cc3)C[C@@]21C (some centres not stated)	–	–	> 2250 nM	34 nM	510 nM	180 nM
C#C[C@]1(O)CC[C@H]2[C@@H]3CCC4=CC(=O)CCC4=C3[C@@H](c3ccc(N(C)CCCS(=O)(=O)N(C)C4CC[C@@]5(C)[C@@H](C4)C[C@@H](O)[C@@H]4[C@@H]5C[C@H](O)[C@]5(C)[C@@H]([C@H](C)CCC(=O)O)CC[C@@H]45)cc3)C[C@@]21C (some centres not stated)	39 nM	19 nM	–	17 nM	300 nM	60 nM
